Earlier results, collected in US20150246117A1, “TREATMENT OF TYPE 2 DIABETES AND RELATED CONDITIONS” (priority 2012, published 2015).
Where two headings read alike, the source gives them in different places.

Columns and labels:
[1] = for hypoglycemia in combination therapy: combined with sulfonylurea, insulin secretagogue or insulin
CYP3A4/5 = details: coadministration with strong CYP3A4/5 inhibitors (e.g., ketoconazole)
[2] = in vivo
[3] = co-administration of 100 mg sitagliptin for 10 days

Cn1c(=O)cc(N2CCC[C@@H](N)C2)n(Cc2ccccc2C#N)c1=O [Alogliptin]
Half-life (in vivo): 12.4 to 21.4 h
adverse events / tolerability in clinical studies ([1]; human, in vivo): The agent is relatively well tolerated
rate of skin events, primarily pruritus ([1]; human, in vivo): finding being a marginally higher rate

N[C@@H](CC(=O)N1CCc2c(nc(C(F)(F)F)nc2C(F)(F)F)C1)CN1CC(F)(F)CCC1=O [Gemigliptin]
Half-life (in vivo): 17 to 21 h
adverse events / tolerability in clinical studies ([1]; human, in vivo): No serious adverse events recorded.

COc1ccc2cc3[n+](cc2c1OC)CCc1cc2c(cc1-3)OCO2 [berberine]
Half-life (in vivo): 3 to 4 h
adverse events / tolerability in clinical studies ([1]; human, in vivo): Transient gastrointestinal adverse

O=C(CN[C@@H]1CCNC1)N1CCC[C@H]1B(O)O [dutogliptin]
Half-life (in vivo): 10 to 13 h

CC#CCn1c(N2CCC[C@@H](N)C2)nc2c1c(=O)n(Cc1nc(C)c3ccccc3n1)c(=O)n2C [linagliptin]
Half-life (after 5 mg dose): >100 h after 5 mg
hypoglycemia in combination therapy [1]: Hypoglycemia was more commonly

CCCCCCCCCCCCCCCC(=O)N[C@@H](CCC(=O)NCCCC[C@H](NC(=O)[C@H](C)NC(=O)[C@H](C)NC(=O)[C@H](CCC(N)=O)NC(=O)CNC(=O)[C@H](CCC(=O)O)NC(=O)[C@H](CC(C)C)NC(=O)[C@H](Cc1ccc(O)cc1)NC(=O)[C@H](CO)NC(=O)[C@H](CO)NC(=O)[C@@H](NC(=O)[C@H](CC(=O)O)NC(=O)[C@H](CO)NC(=O)[C@@H](NC(=O)[C@H](Cc1ccccc1)NC(=O)[C@@H](NC(=O)CNC(=O)[C@H](CCC(=O)O)NC(=O)[C@H](C)NC(=O)[C@@H](N)Cc1cnc[nH]1)[C@@H](C)O)[C@@H](C)O)C(C)C)C(=O)N[C@@H](CCC(=O)O)C(=O)N[C@@H](Cc1ccccc1)C(=O)N[C@H](C(=O)N[C@@H](C)C(=O)N[C@@H](Cc1c[nH]c2ccccc12)C(=O)N[C@@H](CC(C)C)C(=O)N[C@H](C(=O)N[C@@H](CCCNC(=N)N)C(=O)NCC(=O)N[C@@H](CCCNC(=N)N)C(=O)NCC(=O)O)C(C)C)[C@@H](C)CC)C(=O)O [liraglutide]
Immunogenicity-related events, including urticaria ([1]; treated patients in clinical trials (comparator-treated 0.4%)): Victoza-treated patients (0.8%) than among

N#C[C@@H]1C[C@@H]2C[C@@H]2N1C(=O)[C@@H](N)C12CC3CC(CC(O)(C3)C1)C2 [saxagliptin]
Half-life (after oral 5 mg): 2.5 h after
saxagliptin concentrations (CYP3A4/5): increases
Peripheral edema ([1]; combination with a thiazolidinedione (TZD) vs placebo and TZD): Peripheral edema was reported more

N[C@@H](CC(=O)N1CCn2c(nnc2C(F)(F)F)C1)Cc1cc(F)c(F)cc1F [sitagliptin]
fertility / fetal harm, animal studies or animal data [2]: JANUVIA did not impair
Half-life (after oral): 12.4 h after
increase in area under the curve (AUC) of digoxin [3]: curve (AUC, 11%)
hypoglycemia in combination therapy [1]: There is an increased risk of

N#C[C@@H]1CCCN1C(=O)CNC12CC3CC(CC(O)(C3)C1)C2 [vildagliptin]
excretion in milk, animal studies [2]: excretion of vildagliptin

Dulaglutide
adverse events / tolerability in clinical studies ([1]; human, in vivo): Gastrointestinal adverse events reported

taspoglutide
patients showing antibodies against the drug ([1]; human, in vivo): (compared to exenatide); 49% of patients
